Like-named read-outs stand apart in the source and are kept apart here.
What was measured:
SARS-CoV-2 (WK-521) [1] = assay: Anti-SARS-CoV-2 effect, assay with VeroE6/TMPRSS2 cells (inhibition of virus-induced cell death, Cell Counting Kit-8); type: cell-based; details: for EC50: VeroE6/TMPRSS2 cells, MOI=0.01, 3 days of culture, read-out: EC50: 50% effective concentration (concentration of agent which inhibits cell death induced by SARS-CoV-2 infection by 50%)
VeroE6/TMPRSS2 cells [2] = assay: Cytotoxicity in uninfected VeroE6/TMPRSS2 cells (viable cell number, Cell Counting Kit-8); details: read-out: CC50: 50% cytotoxic concentration (concentration of agent which reduces the number of viable cells by 50%), 3 days of culture
in vitro [3] = details: African green monkey
VeroE6/TMPRSS2 cells [4] = details: African green monkey, 3 days
SARS-CoV-2 (WK-521) [5] = assay: microbe, parasite or virus in culture; type: cell-based; details: Severe acute respiratory syndrome coronavirus 2, HEK-293T, 72 h, HEK293T/ACE2 cells, MOI=0.1, 3 days, qPCR of viral RNA in supernatant; for IC90: read-out: IC50(μM) (footnote defines IC90: 90% inhibitory concentration); for IC50: read-out: IC50: 50% inhibitory concentration (reduces viral production and replication by 50%)
in vitro [6] = details: human
HEK293T/ACE2 cells = details: human, 3 days

Molecule	EC50 (SARS-CoV-2 (WK-521) [1]) [µM]	CC50 at 3 days (in vitro [3]) [µM]	IC90 (SARS-CoV-2 (WK-521) [5]) [µM]	IC50 (SARS-CoV-2 (WK-521) [5]) [µM]	CC50 at 3 days (in vitro [6]) [µM]	also measured
5-butyl-2-(1′,1′,1′,3′,3′,3′-hexafluoro-2′-hydroxypropan-2′-yl)-7,8,9-trimethoxy-phenanthridin-6(5H)-one [KZ39]	8.6	–	–	–	–	CC50 (VeroE6/TMPRSS2 cells [2]): > 10 µM
CCCCn1c(=O)c2ccccc2c2cc(C(O)(C(F)(F)F)C(F)(F)F)ccc21 [HA-579]	8.7	> 10	–	–	–	–
CCCCn1c(=O)c2ccccc2c2cc(C(O)(C(F)(F)F)C(F)(F)F)c3c(c21)OCO3 [HA-718, 4-butyl-11-(1′,1′,1′,3′,3′,3′-hexafluoro-2′-hydroxypropan-2′-yl)-[1,3]dioxolo [4,5-c]phenanthridin-5(4H)-one]	3.1	> 10	–	–	–	–
CCCCn1c(=O)c2cc(OC)ccc2c2cc(C(O)(C(F)(F)F)C(F)(F)F)c3c(c21)OCO3 [HA-719, 4-butyl-11-(1′,1′,1′,3′,3′,3′-hexafluoro-2′-hydroxypropan-2′-yl)-7-methoxy-[1,3]dioxolo[4,5-c]phenanthridin-5(4H)-one]	2.6	> 10	–	–	–	cell death due to SARS-CoV-2 infection observed under a microscope (FIG. 2) (SARS-CoV-2 (WK-521) [1]; 5 μM of HA-719, VeroE6/TMPRSS2 cells): almost no cell death was observed
CCCCn1c(=O)c2cc(OC)ccc2c2cc(C(O)(C(F)(F)F)C(F)(F)F)c(OC)c(OC)c21 [HA-727, 5-butyl-2-(1′,1′,1′,3′,3′,3′-hexafluoro-2′-hydroxypropan-2′-yl)-3,4,8-trimethoxy-phenanthridin-6(5H)-one]	4.8	> 10	–	–	–	–
CCCCn1c(=O)c2cc3c(cc2c2cc(C(O)(C(F)(F)F)C(F)(F)F)c4c(c21)OCO4)OCO3 [HA-754]	5	> 10	–	–	–	–
CC(C)Cn1c(=O)c2ccccc2c2cc(C(O)(C(F)(F)F)C(F)(F)F)ccc21 [KZ01]	5.4	> 10	–	–	–	–
CCCCn1c(=O)c2ccccc2c2cc(C(O)(C(F)(F)F)C(F)(F)F)cc(C)c21 [KZ07]	3.3	–	–	–	–	CC50 (VeroE6/TMPRSS2 cells [4]): > 10 µM
CCCCn1c(=O)c2ccccc2c2cc(C(O)(C(F)(F)F)C(F)(F)F)cc(OC)c21 [KZ08]	2.9	> 10	–	–	–	–
CCCCn1c(=O)c2cc(OC)ccc2c2cc(C(O)(C(F)(F)F)C(F)(F)F)ccc21 [KZ12]	8.8	> 10	–	–	–	–
CCCCn1c(=O)c2cc(C)ccc2c2cc(C(O)(C(F)(F)F)C(F)(F)F)ccc21 [KZ24]	4.1	–	–	–	–	CC50 (VeroE6/TMPRSS2 cells [4]): > 10 µM
CCCCn1c(=O)c2cc3c(cc2c2cc(C(O)(C(F)(F)F)C(F)(F)F)ccc21)OCO3 [KZ26, 5-butyl-2-(1′,1′,1′,3′,3′,3′-hexafluoro-2′-hydroxypropan-2′-yl)-[1,3] dioxolo[4,5-j] phenanthridin-6(5H)-one]	2.9	> 10	–	–	–	–
CCCCn1c(=O)c2c(OC)cccc2c2cc(C(O)(C(F)(F)F)C(F)(F)F)ccc21 [KZ31, 5-butyl-2-(1′,1′,1′,3′,3′,3′-hexafluoro-2′-hydroxypropan-2′-yl)-7-methoxy-phenanthridin-6(5H)-one]	3.3	> 10	–	–	–	–
CCCCn1c(=O)c2ccc(OC)cc2c2cc(C(O)(C(F)(F)F)C(F)(F)F)ccc21 [KZ32, 5-butyl-2-(1′,1′,1′,3′,3′,3′-hexafluoro-2′-hydroxypropan-2′-yl)-9-methoxy-phenanthridin-6(5H)-one]	1.8	> 10	7.37	1.03	> 20	–
CCCCn1c(=O)c2cccc(OC)c2c2cc(C(O)(C(F)(F)F)C(F)(F)F)ccc21 [KZ33, 5-butyl-2-(1′,1′,1′,3′,3′,3′-hexafluoro-2′-hydroxypropan-2′-yl)-10-methoxy-phenanthridin-6(5H)-one]	4.1	> 10	–	–	–	–
CCCCn1c(=O)c2ccc(OCCO)cc2c2cc(C(O)(C(F)(F)F)C(F)(F)F)ccc21 [NR-04, 5-butyl-2-(1,1,1,3,3,3-hexafluoro-2-hydroxypropan-2-yl)-9-(2-hydroxyethoxy)-phenanthridin-6(5H)-one]	–	–	3.72	0.489	> 20	–
CCCCn1c(=O)c2cc(O)ccc2c2cc(C(O)(C(F)(F)F)C(F)(F)F)cc(OC)c21 [NR-19]	–	–	4.44	0.61	> 20	–
CCCCn1c(=O)c2cc(OCCO)ccc2c2cc(C(O)(C(F)(F)F)C(F)(F)F)cc(OC)c21 [NR-26]	–	–	14.8	1.24	> 20	–

Molecule	EC50 (SARS-CoV-2 (WK-521) [1]) [µM]	CC50 at 3 days (in vitro [3]) [µM]	IC90 (SARS-CoV-2 (WK-521) [5]) [µM]	IC50 (SARS-CoV-2 (WK-521) [5]) [µM]	CC50 at 3 days (in vitro [6]) [µM]	also measured
CCCCn1c(=O)c2ccc(OCC(C)(C)O)cc2c2cc(C(O)(C(F)(F)F)C(F)(F)F)ccc21 [NR-32, 5-butyl-2-(1,1,1,3,3,3-hexafluoro-2-hydroxypropan-2-yl)-9-(2-hydroxy-2-methylpropyloxy)phenanthridin-6(5H)-one]	–	–	2.34	0.27	> 20	–
CCCCn1c(=O)c2ccc(OC(CO)CO)cc2c2cc(C(O)(C(F)(F)F)C(F)(F)F)ccc21 [NR-46]	–	–	3.76	0.44	> 20	–
CCCCn1c(=O)c2cc(NC(=O)C3CC3)ccc2c2cc(C(O)(C(F)(F)F)C(F)(F)F)ccc21 [NR-51]	–	–	1.8	0.3	8.4	–
CCCCn1c(=O)c2cc(O)c(OC3(C)CNC3)cc2c2cc(C(O)(C(F)(F)F)C(F)(F)F)ccc21 [NR-58]	–	–	4.69	1.04	10.6	–
CCCCn1c(=O)c2cc(F)c(OCCN(C)C)cc2c2cc(C(O)(C(F)(F)F)C(F)(F)F)ccc21 [NR-60]	–	–	> 10	0.95	6.73	–
CCCCn1c(=O)c2cc(F)c(OCCO)cc2c2cc(C(O)(C(F)(F)F)C(F)(F)F)ccc21 [NR-61]	–	–	4.99	1.09	19	–
CCCCn1c(=O)c2cc(F)c(OCCNC(C)=O)cc2c2cc(C(O)(C(F)(F)F)C(F)(F)F)ccc21 [NR-62]	–	–	7.82	1.28	13	–
CCCCn1c(=O)c2cc(F)c(OCC(N)=O)cc2c2cc(C(O)(C(F)(F)F)C(F)(F)F)ccc21 [NR-63]	–	–	2.48	0.21	> 20	–
CCCCn1c(=O)c2cc(F)c(O[C@@H]3COC[C@@H]3O)cc2c2cc(C(O)(C(F)(F)F)C(F)(F)F)ccc21 [NR-65]	–	–	6.76	0.2	18.2	–
CCCCn1c(=O)c2cc(F)c(OC3CCOC3)cc2c2cc(C(O)(C(F)(F)F)C(F)(F)F)ccc21 (centres unmarked) [NR-66]	–	–	5.66	0.8	13.9	–
CCCCn1c(=O)c2cc(OC3CCOC3)c(OC3CCOC3)cc2c2cc(C(O)(C(F)(F)F)C(F)(F)F)ccc21 (centres unmarked) [NR-67]	–	–	> 10	1.32	19	–
CCCCn1c(=O)c2cc(F)c(OC3COC3)cc2c2cc(C(O)(C(F)(F)F)C(F)(F)F)ccc21 [NR-80]	–	–	6.16	0.59	19.1	–
CCCCn1c(=O)c2cc(F)c(OCC(O)CO)cc2c2cc(C(O)(C(F)(F)F)C(F)(F)F)ccc21 (centres unmarked) [NR-82]	–	–	8.57	0.95	14.5	–
CCCCn1c(=O)c2cc3c(cc2c2cc(C(O)(C(F)(F)F)C(F)(F)F)ccc21)OC1COCC1O3 (centres unmarked) [NR-84]	–	–	5.83	1.74	> 20	–
CCCCn1c(=O)c2ccc(OCC(C)=O)cc2c2cc(C(O)(C(F)(F)F)C(F)(F)F)ccc21 [NR-93]	–	–	3.27	0.243	–	CC50 (HEK293T/ACE2 cells): > 20 µM
CCCCn1c(=O)c2ccc(OCC(=O)NC)cc2c2cc(C(O)(C(F)(F)F)C(F)(F)F)ccc21 [NR-97]	–	–	3.27	0.24	> 20	–
CCCCn1c(=O)c2ccc(O)cc2c2cc(C(O)(C(F)(F)F)C(F)(F)F)ccc21 [YN029, 5-butyl-2-(1′,1′,1′,3′,3′,3′-hexafluoro-2′-hydroxypropan-2′-yl) hydroxyphenanthridin-6(5H)-one]	1.9	> 10	3.04	0.588	16.9	–
CCCCn1c(=O)c2ccc(C)cc2c2cc(C(O)(C(F)(F)F)C(F)(F)F)ccc21 [YN033]	6	–	–	–	–	CC50 (VeroE6/TMPRSS2 cells [4]): > 10 µM
